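Results reflect a 48-hour exposure of cells in 96-well plates to compound at five concentrations. TGI is the concentration that stops growth completely.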
Columns and labels:
Experiment in all cases: NCI tumour cell line growth inhibition, 48 h
SK-MEL-2 melanoma = system: SK-MEL-2 melanoma
EKVX NSCLC = system: EKVX NSCLC
UO-31 renal = system: UO-31 renal
DLD-1 colon = system: DLD-1 colon
HCT-15 colon = system: HCT-15 colon
OVCAR-8 ovarian = system: OVCAR-8 ovarian
M19-MEL melanoma = system: M19-MEL melanoma
NCI-H460 lung = system: NCI-H460 lung
MOLT-4 leukemia = system: MOLT-4 leukemia
A549 NSCLC = system: A549 NSCLC
IGROV1 ovarian = system: IGROV1 ovarian
NCI-H522 lung = system: NCI-H522 lung
U251 CNS = system: U251 CNS
HCT-116 colon = system: HCT-116 colon
NCI-H226 lung = system: NCI-H226 lung
SK-OV-3 ovarian = system: SK-OV-3 ovarian
SNB-78 CNS = system: SNB-78 CNS
LXFL 529 NSCLC = system: LXFL 529 NSCLC
M14 melanoma = system: M14 melanoma
RXF 393 renal = system: RXF 393 renal
ACHN renal = system: ACHN renal
SF-539 CNS = system: SF-539 CNS
XF 498 CNS = system: XF 498 CNS
OVCAR-5 ovarian = system: OVCAR-5 ovarian
A498 renal = system: A498 renal
SK-MEL-28 melanoma = system: SK-MEL-28 melanoma
SW-620 colon = system: SW-620 colon
SF-295 CNS = system: SF-295 CNS
HT29 colon = system: HT29 colon
KM12 colon = system: KM12 colon
LOX IMVI melanoma = system: LOX IMVI melanoma
SNB-19 CNS = system: SNB-19 CNS
CAKI-1 renal = system: CAKI-1 renal
TK-10 renal = system: TK-10 renal
SK-MEL-5 melanoma = system: SK-MEL-5 melanoma
K-562 leukemia = system: K-562 leukemia
OVCAR-4 ovarian = system: OVCAR-4 ovarian
SN12C renal = system: SN12C renal
SF-268 CNS = system: SF-268 CNS
SNB-75 CNS = system: SNB-75 CNS
HOP-92 NSCLC = system: HOP-92 NSCLC
KM20L2 colon = system: KM20L2 colon
DMS 273 small cell lung = system: DMS 273 small cell lung
OVCAR-3 ovarian = system: OVCAR-3 ovarian
MALME-3M melanoma = system: MALME-3M melanoma
CCRF-CEM leukemia = system: CCRF-CEM leukemia
HCC-2998 colon = system: HCC-2998 colon
UACC-257 melanoma = system: UACC-257 melanoma
HL-60(TB) leukemia = system: HL-60(TB) leukemia
786-0 renal = system: 786-0 renal
HOP-62 NSCLC = system: HOP-62 NSCLC
RPMI-8226 leukemia = system: RPMI-8226 leukemia
UACC-62 melanoma = system: UACC-62 melanoma
COLO 205 colon = system: COLO 205 colon
NCI-H23 lung = system: NCI-H23 lung
DMS 114 small cell lung = system: DMS 114 small cell lung
HOP-18 NSCLC = system: HOP-18 NSCLC
SR leukemia = system: SR leukemia
RXF-631 renal = system: RXF-631 renal

## CCOc1ccccc1NC(=O)C(=O)CC(=O)C1=C(C)Nc2ccccc2S1
SK-MEL-2 melanoma
  TGI: > 100 µM
EKVX NSCLC
  TGI: > 100 µM
UO-31 renal
  TGI: > 100 µM
DLD-1 colon
  TGI: > 100 µM
HCT-15 colon
  TGI: > 100 µM
OVCAR-8 ovarian
  TGI: > 100 µM
M19-MEL melanoma
  TGI: > 100 µM
NCI-H460 lung
  TGI: > 100 µM
MOLT-4 leukemia
  TGI: > 69.5 µM
A549 NSCLC
  TGI: > 100 µM
IGROV1 ovarian
  TGI: > 100 µM
NCI-H522 lung
  TGI: > 100 µM
U251 CNS
  TGI: > 100 µM
HCT-116 colon
  TGI: > 100 µM
NCI-H226 lung
  TGI: > 100 µM
SK-OV-3 ovarian
  TGI: > 100 µM
SNB-78 CNS
  TGI: > 100 µM
LXFL 529 NSCLC
  TGI: > 100 µM
M14 melanoma
  TGI: > 100 µM
RXF 393 renal
  TGI: > 100 µM
ACHN renal
  TGI: > 100 µM
SF-539 CNS
  TGI: > 100 µM
XF 498 CNS
  TGI: > 100 µM
OVCAR-5 ovarian
  TGI: > 100 µM
A498 renal
  TGI: > 100 µM
SK-MEL-28 melanoma
  TGI: > 100 µM
SW-620 colon
  TGI: > 100 µM
SF-295 CNS
  TGI: > 100 µM
HT29 colon
  TGI: > 100 µM
KM12 colon
  TGI: > 100 µM
LOX IMVI melanoma
  TGI: > 100 µM
SNB-19 CNS
  TGI: > 100 µM
CAKI-1 renal
  TGI: > 100 µM
TK-10 renal
  TGI: > 100 µM
SK-MEL-5 melanoma
  TGI: > 100 µM
K-562 leukemia
  TGI: > 76.4 µM
OVCAR-4 ovarian
  TGI: > 100 µM
SN12C renal
  TGI: > 100 µM
SF-268 CNS
  TGI: > 100 µM
SNB-75 CNS
  TGI: > 100 µM
HOP-92 NSCLC
  TGI: > 100 µM
KM20L2 colon
  TGI: > 100 µM
DMS 273 small cell lung
  TGI: > 100 µM
OVCAR-3 ovarian
  TGI: > 100 µM
MALME-3M melanoma
  TGI: > 100 µM
CCRF-CEM leukemia
  TGI: > 100 µM
HCC-2998 colon
  TGI: > 100 µM
UACC-257 melanoma
  TGI: > 100 µM
HL-60(TB) leukemia
  TGI: > 36.2 µM
786-0 renal
  TGI: > 100 µM
HOP-62 NSCLC
  TGI: > 100 µM
RPMI-8226 leukemia
  TGI: > 100 µM
UACC-62 melanoma
  TGI: > 100 µM
COLO 205 colon
  TGI: > 100 µM
NCI-H23 lung
  TGI: > 100 µM

## CCC(=O)C1=C(OC(C)=O)C2Cc3c(n(C)c4ccccc34)C(C1)N2C (stereo not given)
SK-MEL-2 melanoma
  TGI: > 100 µM
EKVX NSCLC
  TGI: > 100 µM
UO-31 renal
  TGI: > 100 µM
DLD-1 colon
  TGI: 74.5 µM
DMS 114 small cell lung
  TGI: 58.7 µM
HOP-18 NSCLC
  TGI: > 100 µM
HCT-15 colon
  TGI: 38 µM
OVCAR-8 ovarian
  TGI: 41.6 µM
M19-MEL melanoma
  TGI: > 100 µM
NCI-H460 lung
  TGI: > 100 µM
MOLT-4 leukemia
  TGI: > 100 µM
A549 NSCLC
  TGI: > 100 µM
IGROV1 ovarian
  TGI: > 100 µM
NCI-H522 lung
  TGI: 30 µM
U251 CNS
  TGI: > 100 µM
HCT-116 colon
  TGI: 85.1 µM
NCI-H226 lung
  TGI: > 100 µM
SK-OV-3 ovarian
  TGI: > 100 µM
SR leukemia
  TGI: > 100 µM
SNB-78 CNS
  TGI: 56.4 µM
LXFL 529 NSCLC
  TGI: > 100 µM
M14 melanoma
  TGI: > 100 µM
ACHN renal
  TGI: > 100 µM
SF-539 CNS
  TGI: 59.2 µM
OVCAR-5 ovarian
  TGI: > 100 µM
A498 renal
  TGI: > 100 µM
SK-MEL-28 melanoma
  TGI: > 100 µM
SW-620 colon
  TGI: 90.1 µM
SF-295 CNS
  TGI: > 100 µM
HT29 colon
  TGI: > 100 µM
KM12 colon
  TGI: > 100 µM
LOX IMVI melanoma
  TGI: > 100 µM
SNB-19 CNS
  TGI: > 100 µM
CAKI-1 renal
  TGI: > 100 µM
TK-10 renal
  TGI: > 100 µM
SK-MEL-5 melanoma
  TGI: 97.9 µM
K-562 leukemia
  TGI: > 100 µM
OVCAR-4 ovarian
  TGI: > 100 µM
SN12C renal
  TGI: 61.5 µM
SF-268 CNS
  TGI: 47.9 µM
SNB-75 CNS
  TGI: > 100 µM
HOP-92 NSCLC
  TGI: > 100 µM
KM20L2 colon
  TGI: > 100 µM
DMS 273 small cell lung
  TGI: 41.7 µM
OVCAR-3 ovarian
  TGI: > 100 µM
MALME-3M melanoma
  TGI: > 100 µM
CCRF-CEM leukemia
  TGI: 80.9 µM
RXF-631 renal
  TGI: 67.2 µM
HCC-2998 colon
  TGI: > 100 µM
UACC-257 melanoma
  TGI: > 100 µM
HL-60(TB) leukemia
  TGI: 53 µM
786-0 renal
  TGI: 66.4 µM
UACC-62 melanoma
  TGI: > 100 µM
COLO 205 colon
  TGI: > 100 µM
NCI-H23 lung
  TGI: > 100 µM

## COC(=O)C(C(=O)C(=O)Nc1cccc(O)c1)c1nc2ccc(Cl)cc2[nH]c1=O (stereo not given)
SK-MEL-2 melanoma
  TGI: > 100 µM
EKVX NSCLC
  TGI: > 100 µM
UO-31 renal
  TGI: > 100 µM
DLD-1 colon
  TGI: > 100 µM
DMS 114 small cell lung
  TGI: > 100 µM
HOP-18 NSCLC
  TGI: > 100 µM
HCT-15 colon
  TGI: > 100 µM
OVCAR-8 ovarian
  TGI: > 100 µM
M19-MEL melanoma
  TGI: > 100 µM
NCI-H460 lung
  TGI: > 100 µM
MOLT-4 leukemia
  TGI: > 100 µM
A549 NSCLC
  TGI: > 100 µM
IGROV1 ovarian
  TGI: > 100 µM
U251 CNS
  TGI: > 100 µM
HCT-116 colon
  TGI: > 100 µM
NCI-H226 lung
  TGI: > 100 µM
SK-OV-3 ovarian
  TGI: > 100 µM
SNB-78 CNS
  TGI: > 100 µM
LXFL 529 NSCLC
  TGI: > 100 µM
M14 melanoma
  TGI: > 100 µM
RXF 393 renal
  TGI: > 100 µM
ACHN renal
  TGI: > 100 µM
SF-539 CNS
  TGI: > 100 µM
OVCAR-5 ovarian
  TGI: > 100 µM
A498 renal
  TGI: > 100 µM
SK-MEL-28 melanoma
  TGI: > 100 µM
SW-620 colon
  TGI: > 100 µM
SF-295 CNS
  TGI: > 100 µM
HT29 colon
  TGI: > 100 µM
KM12 colon
  TGI: > 100 µM
LOX IMVI melanoma
  TGI: > 100 µM
SNB-19 CNS
  TGI: > 100 µM
CAKI-1 renal
  TGI: > 100 µM
TK-10 renal
  TGI: > 100 µM
SK-MEL-5 melanoma
  TGI: > 100 µM
K-562 leukemia
  TGI: > 100 µM
OVCAR-4 ovarian
  TGI: > 100 µM
SN12C renal
  TGI: > 100 µM
SF-268 CNS
  TGI: > 100 µM
SNB-75 CNS
  TGI: > 100 µM
HOP-92 NSCLC
  TGI: > 100 µM
KM20L2 colon
  TGI: > 100 µM
OVCAR-3 ovarian
  TGI: > 100 µM
MALME-3M melanoma
  TGI: > 100 µM
CCRF-CEM leukemia
  TGI: > 100 µM
RXF-631 renal
  TGI: > 100 µM
HCC-2998 colon
  TGI: > 100 µM
UACC-257 melanoma
  TGI: > 100 µM
HL-60(TB) leukemia
  TGI: > 100 µM
786-0 renal
  TGI: > 100 µM
HOP-62 NSCLC
  TGI: > 100 µM
RPMI-8226 leukemia
  TGI: > 100 µM
UACC-62 melanoma
  TGI: > 100 µM
COLO 205 colon
  TGI: > 100 µM
NCI-H23 lung
  TGI: > 100 µM

## Clc1ccccc1C(n1cc(Br)cn1)n1cc(Br)cn1
SK-MEL-2 melanoma
  TGI: 45.6 µM
UO-31 renal
  TGI: 32.6 µM
DLD-1 colon
  TGI: 54 µM
DMS 114 small cell lung
  TGI: 56 µM
OVCAR-8 ovarian
  TGI: 55.1 µM
M19-MEL melanoma
  TGI: 34.5 µM
NCI-H460 lung
  TGI: 28.1 µM
MOLT-4 leukemia
  TGI: 39.2 µM
NCI-H522 lung
  TGI: > 100 µM
U251 CNS
  TGI: > 100 µM
HCT-116 colon
  TGI: 42.9 µM
SR leukemia
  TGI: 92.9 µM
SNB-78 CNS
  TGI: > 100 µM
LXFL 529 NSCLC
  TGI: > 100 µM
M14 melanoma
  TGI: 36.9 µM
RXF 393 renal
  TGI: 34.4 µM
ACHN renal
  TGI: 55.2 µM
XF 498 CNS
  TGI: 40.6 µM
OVCAR-5 ovarian
  TGI: 49 µM
A498 renal
  TGI: 35.9 µM
SK-MEL-28 melanoma
  TGI: > 100 µM
SF-295 CNS
  TGI: 43.1 µM
HT29 colon
  TGI: 29 µM
KM12 colon
  TGI: 40.8 µM
LOX IMVI melanoma
  TGI: 31.2 µM
SNB-19 CNS
  TGI: > 100 µM
CAKI-1 renal
  TGI: > 100 µM
TK-10 renal
  TGI: > 100 µM
SK-MEL-5 melanoma
  TGI: 23.1 µM
K-562 leukemia
  TGI: > 100 µM
OVCAR-4 ovarian
  TGI: > 100 µM
SN12C renal
  TGI: 30.6 µM
DMS 273 small cell lung
  TGI: 53 µM
MALME-3M melanoma
  TGI: 46.9 µM
CCRF-CEM leukemia
  TGI: 93.1 µM
UACC-257 melanoma
  TGI: 31.7 µM
HL-60(TB) leukemia
  TGI: 44.6 µM
HOP-62 NSCLC
  TGI: 57.9 µM
RPMI-8226 leukemia
  TGI: 46.3 µM
NCI-H23 lung
  TGI: > 100 µM

Source: PubChem BioAssay (NCI)
